Test results from US20050267029A1, “Compounds which modulate amyloidogenesis and methods for their identification and use” (priority 2004, published 2005).
Like-named read-outs stand apart in the source and are kept apart here. Square brackets hold non-standard residues; d marks the D form. Ends that are not written are not given here.

Columns and labels:
IAPP = target: T1, IAPP (Homo sapiens, UniProt P10997); conditions: cited from earlier work
T1 construct: human islet amyloid polypeptide, a major component of amyloid deposits found in the pancreas
T1 sequence (P10997 34-70 limits assumed): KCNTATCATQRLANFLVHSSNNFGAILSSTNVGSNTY

J774A.1 cells [1] = conditions: for Effect on amyloidogenesis / amyloid deposition in cell culture (in words): increasing concentrations of test agent
Description: AA-amyloid deposits were detected by histochemical staining with Alcian blue and direct quantitation by Th-T fluorescence.
The ability of a number of potential anti-amyloid compounds to modulate amyloid formation in this cell culture system was tested. To determine the effects of these potential anti-amyloid compounds, cell culture amyloidogenesis was induced in the presence of increasing concentrations of the test agents. Amyloid loads were quantified by Th-T fluorescence.
The murine monocytic cell line J774A.1 (American Type Culture Collection, Manassas, Va.) was cultured in RPMI (Sigma) medium which contained 25 mM HEPES, 15% fetal bovine serum (FBS) and 50 μg/ml penicillin-streptomycin, at 37° C., 5% CO2. The cell stocks were passaged every four days, and the medium replaced every other day. Cells were seeded at a minimal density in 8-well chamber slides (Lab-Tek®, Nalge Nunc International, Naperville, Ill.) in 350 μl medium/well and allowed to reach about 80-90% confluence (3 days), about 2.2×10^5 cells per well. To induce AA-amyloidogenesis, cells were treated for 24 hours with 30 μg of AEF in the culture medium, then the medium was removed and the cells rinsed with fresh medium. To these cells 350 μl of medium was added containing either 0.3 mg/ml HDL-SAA, HDL, 0.05 mg/ml SAA1.1 or SAA2.1, replenished every two days for 7 days. At the end of the treatment period, the cells were either stained with Congo red to visualize the amyloid deposits, or the cells were dissolved in 1% NaOH and assayed for amyloid fibrils by thioflavin-T (Th-T) fluorescence as described by LeVine (Methods Enzymol. 1999 309:274-284).

J774 cells = assay: HDL-SAA binding/uptake by J774 cells (western blot); type: cell-based, murine; conditions: 50 μM
Aβ1-40 = Aβ1-40 (Homo sapiens, UniProt P05067); conditions: 100 μM, cell-free system; cited from earlier work
J774A.1 cells [2] = assay: Cell culture amyloidogenesis, amyloid detected by Congo Red (CR) staining; type: cell-based, murine
Description: The murine monocytic cell line J774A.1 (American Type Culture Collection, Manassas, Va.) was cultured in RPMI (Sigma) medium which contained 25 mM HEPES, 15% fetal bovine serum (FBS) and 50 μg/ml penicillin-streptomycin, at 37° C., 5% CO2. The cell stocks were passaged every four days, and the medium replaced every other day. Cells were seeded at a minimal density in 8-well chamber slides (Lab-Tek®, Nalge Nunc International, Naperville, Ill.) in 350 μl medium/well and allowed to reach about 80-90% confluence (3 days), about 2.2×10^5 cells per well. […] At the end of the treatment period, the cells were either stained with Congo red to visualize the amyloid deposits, or the cells were dissolved in 1% NaOH and assayed for amyloid fibrils by thioflavin-T (Th-T) fluorescence as described by LeVine (Methods Enzymol. 1999 309:274-284). […]
Congo Red (CR) staining for amyloid was performed on cells that were rinsed with PBS, fixed for 10 minutes in 70% ethanol, and then stained for 45 minutes with Congo red prepared in alkaline 80% ethanol, NaCl saturated solution. […] Quantitation of amyloid was performed by Th-T fluorescence as described by LeVine (Methods Enzymol. 1999 309:274-284). Fluorescence spectra of Th-T were acquired at 25° C. with a Spectra Max Gemini 96-well plate reader. […] Control spectra of Th-T and cell extract alone were determined. […]

Chain of Aβ1-40 (P05067 672-711): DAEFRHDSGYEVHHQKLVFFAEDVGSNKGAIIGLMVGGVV

LANFLV [residues 12-17 of human islet amyloid polypeptide]
Effect on beta-sheet transition and fibril formation of human islet amyloid polypeptide (IAPP): strong enhancers of beta-sheet transition and fibril formation

PLPAQGKPGPDHYARNDSYAKNRYERG (OTHER INFORMATION: Synthetic) [SEQ ID NO:8, reference compound]
Effect on amyloidogenesis / amyloid deposition in cell culture (in words) (J774A.1 cells [1]): complete loss of inhibitory activity

ADQEANRHGRSGKDPNYYRPPGLPAKY [27-mer]
Effect on HDL-SAA binding to J774 cells (J774 cells): did not interfere with HDL-SAA binding to cells
IC50 (J774A.1 cells [1]): 20 nM
Fold less than the SAA1.1 concentration used to generate AA-amyloid (J774A.1 cells [1]; 70 nM versus 4.2 μM SAA1.1): about 60 fold
Fold less peptide needed than the IAPP peptides (100 μM) for similar inhibition (J774A.1 cells [1]; 70 nM versus 100 μM): 1400 fold
IC50 fold lower than that for PVS (J774A.1 cells [1]; 27-mer versus PVS): 25 fold
Concentration achieving a similar level of inhibition (80 to 85%) of amyloid load (J774A.1 cells [1]; SAA1.1 concentration 4.2 μM): 70 nM

chondroitin sulfate [reference compound]
Effect on amyloidogenesis / amyloid deposition in cell culture (in words) (J774A.1 cells [1]): unable to affect amyloid deposition at any concentration tested

polyvinylsulfonate [PVS, reference compound]
Effect on HDL-SAA binding to J774 cells (J774 cells): prevented HDL-SAA binding to J774 cells
100% inhibition of amyloidogenesis (IC100) (J774A.1 cells [1]; Th-T fluorescence): 9 µM
IC50 (J774A.1 cells [1]; read-out: 50% inhibition of amyloidogenesis (IC50), Th-T fluorescence, test agent present throughout HDL-SAA treatments): 500 nM

WRAYTDMKEAGWKDGDKYFHARGNYDAAQRGPG [33-mer]
Effect on HDL-SAA binding to J774 cells (J774 cells): completely blocked HDL-SAA binding/uptake
Enhancement of amyloid formation (J774A.1 cells [1]; AEF preincubation not used): greater than 50%
Enhancement of amyloid formation (J774A.1 cells [1]; cells preincubated with AEF): up to 180%
Effect on amyloidogenesis / amyloid deposition in cell culture (in words) (J774A.1 cells [1]): increasing amyloid load in culture

FLVHSS [residues 15-20 of human islet amyloid polypeptide]
Effect on beta-sheet transition and fibril formation of human islet amyloid polypeptide (IAPP): strong enhancers of beta-sheet transition and fibril formation

ADQAANEWGRSGKDPNHFRPAGLPEKY [SEQ ID NO:9]
Effect on amyloidogenesis / amyloid deposition in cell culture (in words) (J774A.1 cells [1]): equivalent inhibitory activity

ADQEANAAGASGKDPNYYRPPGLPAKY (OTHER INFORMATION: Synthetic) [27-mer; R83A/H84A/R86A]
Effect on amyloidogenesis / amyloid deposition in cell culture (in words) (J774A.1 cells [1]): complete loss of inhibitory activity

KLVFF [Aβ peptide (residues 16-20)]
Effect on Aβ1-40 fibril assembly (Aβ1-40): prevent fibril assembly

ADQEANRHGRSGKDPNYYRPPGLPAKY ([dA][dD][dQ][dE][dA][dN][dR][dH]G[dR][dS]G[dK][dD][dP][dN][dY][dY][dR][dP][dP]G[dL][dP][dA][dK][dY]) [D-27mer]
Formation of CR-detectable amyloid (J774A.1 cells [2]; 20 μM, co-incubated with HDL-SAA): prevented the formation of any CR-detectable amyloid

heparin [reference compound]
Effect on HDL-SAA binding to J774 cells (J774 cells): prevented HDL-SAA binding to cells

ANRHGRSGKNPNYYRPPGLPAKY (ANRHGRSGKNPNYYRPPGLPAKY-NH2) [23-mer basic]
Inhibition of CR-detectable amyloid (J774A.1 cells [2]; 2 μM): completely inhibit CR-detectable amyloid

B1: SAA1.1: purified delipidated murine serum amyloid A isoform 1.1 (protein, UniProt P05366 20-122, looked up)
Serum amyloid A-1 protein: GFFSFVHEAFQGAGDMWRAYTDMKEANWKNSDKYFHARGNYDAAQRGPGGVWAAEKISDGREAFQEFFGRGHEDTIADQEANRHGRSGKDPNYYRPPGLPDKY
Amyloid produced, % of HDL-SAA (J774A.1 cells [1]; purified delipidated isoform 50 μg/ml with AEF): 9%

B2: SAA2.1: purified delipidated murine serum amyloid A isoform 2.1 (protein, UniProt P05367 20-122, looked up)
Serum amyloid A-2 protein: GFFSFIGEAFQGAGDMWRAYTDMKEAGWKDGDKYFHARGNYDAAQRGPGGVWAAEKISDARESFQEFFGRGHEDTMADQEANRHGRSGKDPNYYRPPGLPAKY
Amyloid produced from SAA form (in words) (J774A.1 cells [1]; with AEF, CR stain or Th-T fluorescence): no amyloid was detected
